Measurements as given in PubChem BioAssay (NCI).
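1) Cells in 96-well plates. 2) Compound, 48 h, 5 concentrations. 3) Linear interpolation between surrounding doses. 4) Unreached endpoint = highest concentration. The concentration for 50% growth inhibition is given as GI50. TGI: concentration producing complete growth inhibition.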

Experiments:
Assay in all cases: NCI anticancer screen, dose series, 48 h; in the data active = GI50 below about 0.43 µM; inactive = the rest
[1] = system: HOP-62 NSCLC
[2] = system: LXFL 529 NSCLC
[3] = system: MALME-3M melanoma
[4] = system: A498 renal
[5] = system: KM20L2 colon
[6] = system: SF-268 CNS
[7] = system: M19-MEL melanoma
[8] = system: 786-0 renal
[9] = system: HCC-2998 colon
[10] = system: PC-3 prostate

COc1ccc(C(=O)O)c(Cc2ccc3ccccc3c2)c1
> 100 µM: TGI [1] | TGI [2] | TGI [3] | TGI [4] | TGI [5] | TGI [6] | TGI [7] | TGI [8]

Cc1cc2c(c(N)c1C)C(=O)c1ccccc1C2=O
> 100 µM: TGI [2] | TGI [3] | TGI [5] | TGI [9] | TGI [6] | TGI [7]
62.7 µM: TGI [8]
40 µM: TGI [1]
79 µM: TGI [4]

CC1CCC23COC(=O)C2C(O)CCC3C1(C)CC(O)c1ccoc1 (stereo not given)
> 100 µM: TGI [1] | TGI [2] | TGI [3] | TGI [4] | TGI [5] | TGI [9] | TGI [6] | TGI [7] | TGI [8]

COC(=O)NN1C(C)=C(C(=O)OC)C2(CCOC2=O)C1(C)O (stereo not given)
> 100 µM: TGI [1] | TGI [2] | TGI [3] | TGI [4] | TGI [5] | TGI [9] | TGI [6] | TGI [8]

CCN(CC)CCOc1ccc(C(=C2CCCCC2)c2ccc(OCCN(CC)CC)cc2)cc1
3.06 µM: TGI [2]
2.69 µM: TGI [8]
3.08 µM: TGI [7]
2.62 µM: TGI [9]
3.8 µM: TGI [4]
2.55 µM: TGI [5]
3.23 µM: TGI [6]
3.13 µM: TGI [3]
3.27 µM: TGI [1]

BrC12c3ccccc3Sc3ccccc3C1(Br)c1ccccc12 (stereo not given)
70.7 µM: TGI [4]
59.7 µM: TGI [2]
41.6 µM: TGI [5]
42.9 µM: TGI [1]
> 100 µM: TGI [3] | TGI [9] | TGI [6] | TGI [7] | TGI [8]

N#CC1=C(c2ccccc2)C(O)(c2ccccc2)NC1=O (stereo not given)
60.6 µM: TGI [4]
74 µM: TGI [3]
> 100 µM: TGI [1] | TGI [2] | TGI [5] | TGI [9] | TGI [6] | TGI [7] | TGI [8]

CCOC(=O)/C=C/c1ccccn1
> 100 µM: TGI [1] | TGI [2] | TGI [3] | TGI [4] | TGI [9] | TGI [6] | TGI [7] | TGI [8]

CN(C)/C=N/c1nc2ncn(CCOC(=O)c3ccccc3)c2c(=O)[nH]1
> 100 µM: TGI [1] | TGI [2] | TGI [3] | TGI [4] | TGI [5] | TGI [6] | TGI [7] | TGI [8]

O=C1C(N2C(=O)c3ccccc3C2=O)CN1C(COCc1ccccc1)c1ccc(OCc2ccccc2)cc1 (stereo not given)
> 100 µM: TGI [1] | TGI [2] | TGI [3] | TGI [4] | TGI [5] | TGI [9] | TGI [6] | TGI [7] | TGI [8]

COc1ccc(/C(C)=N/NC(N)=S)c(OC)c1
> 100 µM: TGI [1] | TGI [2] | TGI [3] | TGI [4] | TGI [5] | TGI [9] | TGI [6] | TGI [7] | TGI [8]

Oc1cc2c(cc1O)-c1[nH]ncc1CC2
50.7 µM: TGI [9]
> 100 µM: TGI [1] | TGI [2] | TGI [3] | TGI [5] | TGI [6] | TGI [7] | TGI [8]
95.8 µM: TGI [4]

O=C([O-])c1ccccc1Nc1ccccc1[O-].[Ni+3].[OH3+].[OH3+].[OH3+]
> 100 µM: TGI [1] | TGI [2] | TGI [3] | TGI [4] | TGI [9] | TGI [6] | TGI [7] | TGI [8]
inactive: GI50 [1] > 100 µM | GI50 [2] > 100 µM | GI50 [3] > 100 µM | GI50 [4] > 100 µM | GI50 [9] > 100 µM | GI50 [6] > 100 µM | GI50 [7] > 100 µM | GI50 [8] > 100 µM

COC(=O)C(Cc1nc2ccccc2[nH]c1=O)C(=O)C(=O)Nc1ccc(OC)cc1[N+](=O)[O-] (stereo not given)
> 100 µM: TGI [1] | TGI [2] | TGI [3] | TGI [5] | TGI [9] | TGI [6] | TGI [7] | TGI [8]

O=C(O)C1OC(Oc2cc(O)c3c(=O)cc(-c4ccc(O)cc4)oc3c2)C(O)C(O)C1O (stereo not given)
> 100 µM: TGI [1] | TGI [2] | TGI [3] | TGI [5] | TGI [9] | TGI [6] | TGI [7] | TGI [8]

CC(O[Si](C)(C)C)C1C=CC(C)n2c(=O)n(-c3ccccc3)c(=O)n21 (stereo not given)
> 100 µM: TGI [1] | TGI [3] | TGI [9] | TGI [7] | TGI [8]

CC(C)CC(=O)NS(=O)(=O)c1ccccc1
> 100 µM: TGI [1] | TGI [2] | TGI [3] | TGI [4] | TGI [5] | TGI [9] | TGI [6] | TGI [7] | TGI [8]

c1ccc(C2N3CCCCC3[C@@H]3c4[nH]c5ccccc5c4CCN23)cc1 (stereo not given in full)
> 100 µM: TGI [1] | TGI [2] | TGI [3] | TGI [5] | TGI [9] | TGI [6] | TGI [7] | TGI [8]
63.6 µM: TGI [4]

CN(C)CCC1(C2=CCCC2)CC/C(=C\c2ccccc2)C1=O (stereo not given)
29.1 µM: TGI [4]
29.6 µM: TGI [2]
27.8 µM: TGI [8]
42.2 µM: TGI [6]
28.5 µM: TGI [7]
29.2 µM: TGI [9]
30 µM: TGI [1]
31.7 µM: TGI [3]
26 µM: TGI [5]

CC1(C)OC(=O)C(=C2CC(c3ccccc3)c3ccccc32)C(=O)O1 (stereo not given)
> 100 µM: TGI [1] | TGI [2] | TGI [3] | TGI [4] | TGI [5] | TGI [9] | TGI [6] | TGI [7] | TGI [8]

O=C(CN1CCN(c2ccc(Cl)cc2)CC1)N1CCN(c2nnc(-c3ccccc3)c(-c3ccccc3)n2)CC1
inactive: GI50 [1] > 100 µM | GI50 [10] 3.1 µM | GI50 [3] 2.7 µM | GI50 [4] > 100 µM | GI50 [9] 9.29 µM | GI50 [6] > 100 µM | GI50 [8] 5.64 µM
> 100 µM: TGI [1] | TGI [10] | TGI [3] | TGI [4] | TGI [9] | TGI [6] | TGI [8]

CC(C)[C@@H]1CC[C@@H]2[C@@H]1[C@H](OC(=O)/C=C/c1ccccc1)[C@]1(C(C)C)C[C@@H](OC(=O)CO)[C@@]2(C)O1
9.23 µM: TGI [8]
12.2 µM: TGI [10]
inactive: GI50 [1] 6.45 µM | GI50 [10] 5.31 µM | GI50 [3] 5.97 µM | GI50 [9] 6.35 µM | GI50 [6] 4.02 µM | GI50 [8] 4.55 µM
active: GI50 [4] 0.00806 µM
14.5 µM: TGI [1]
9.03 µM: TGI [6]
0.0288 µM: TGI [4]
11.7 µM: TGI [9]
11.1 µM: TGI [3]
